Source: patent publication US8758474B2, “Urea fertilizer containing central volatilization inhibitor particles to reduce release of ammonia and processes for making same” (NFT Industries, LLC, priority 2010, dated 2014)

Test system: enzymes in the soil
Experiment: Ammonia volatilization test (fertilizer applied to the surface of moist soil, ammonia captured in sulfuric acid and titrated)
Conditions: cumulative, percent of total starting nitrogen
Text: Nitrogen lost, as ammonia, after soil application occurs over a long time period. The present volatilization test was designed to simulate and quantify processes in the soil. The volatilization test apparatus and procedure utilized to evaluate the test product samples described in above Table 1 is summarized as follows.
Procedure for Measurement of Ammonia
The test was designed to determine the volatility of a fertilizer product when applied to the surface of the soil. The baseline, standard that used was one gram of urea. Each sample was placed in a sample flask which contained a pre-weighed amount of soil and water. The same source of soil was used in all testing. Humidified air was then passed over the sample to carry any ammonia which had volatilized by the enzymes in the soil, to a receiving flask. The receiving flask contained sulfuric acid which captured the ammonia. The receiving flask was then titrated to determine the amount of ammonia volatilized from each sample.
Mixed Methyl Red—Methylene Blue Indicator (150 mL): • Dissolve 0.2 g of methyl red in 100 mL of ethyl alcohol (70-95%). Dissolve 0.1 g methylene blue in 50 mL of ethyl alcohol (70-95%). Mix together. • Indicator was good for 30 days. Testing Apparatus: Manifold: • a. A manifold was constructed of ½ inch cpvc (chlorinated polyvinyl chloride). • b. The manifold has 22 ports with a needle valve for air flow adjustment. • c. The tubing from the manifold to the sample flask was connected to a 1/16 inch hose barb on the needle valve.
2. Air Supply: • a. The air was supplied by an air compressor with a regulator to control the pressure to the manifold. • b. The air goes through a rotameter with a control knob to adjust the flow to the manifold (A minimum of 70 volumes of the head space is in each sample flask during each sampling interval, often much higher. Head space refers to the air volume above the soil.). • c. The air from the rotameter goes through a bubbler containing 25% sulfuric acid solution. After the sulfuric acid bubbler is a knock out chamber to prevent any sulfuric acid mist from going further. • d. The air then goes to a water bubbler to hydrate the air before going through another knock out chamber before entering the manifold.
3. Sample Flask • a. The sample flask is a 250 mL Erlenmeyer flask. The tubing from the manifold is connected to the flask by a barb fitting in a rubber stopper. • b. Each sample flask contained 48 grams of soil (dried and sieved through a 12 mesh screen), 12 grams of water, and the equivalent of one gram of urea. The materials were added to the flasks in the order list to ensure that the sample was added to moist soil (20-25%).
4. Receiving Flask • a. The receiving flask is a 125 mL Erlenmeyer flask. Tubing from the stopper on the sample flask is connected to a glass sparger passing through a stopper to the receiving flask. • b. Each receiving flask contains 50 mL of 0.5N Sulfuric Acid. • c. The tip of the glass sparger is below the level of the acid to allow the air to bubble through the acid and capture any ammonia present. • d. The receiving flask is removed and replaced with flask containing fresh solution at the intervals of 3, 7 and 10 days.
5. Measurement of Ammonia • a. The contents of each receiving flask removed at the intervals of 3, 7 and 10 days were tested for ammonia according to the above described Procedure for Measurement of Ammonia. The first ten days are most critical and are sufficient to determine reliable comparative results. • b. […] Ammonia Volatilization Test Results for Products in Table 2

SMILES	% Ammonia Released (Table 2 series, Day 0) [%]	% Ammonia Released (Table 2 series, Day 3) [%]	% Ammonia Released (Table 2 series, Day 7) [%]	% Ammonia Released (Table 2 series, Day 10) [%]	% Ammonia Released (Table 3 series, Day 0) [%]	% Ammonia Released (Table 3 series, Day 3) [%]	% Ammonia Released (Table 3 series, Day 7) [%]	% Ammonia Released (Table 3 series, Day 10) [%]	% Ammonia Released (Table 4 series, Day 0) [%]	% Ammonia Released (Table 4 series, Day 3) [%]	% Ammonia Released (Table 4 series, Day 7) [%]	% Ammonia Released (Table 4 series, Day 10) [%]	% Ammonia Released (Table 5 series, Day 0) [%]	% Ammonia Released (Table 5 series, Day 3) [%]	% Ammonia Released (Table 5 series, Day 7) [%]	% Ammonia Released (Table 5 series, Day 10) [%]
NC(N)=O [Urea]	0	0.23	72.29	82.37	0	1.09	38.83	81.33	0	27.41	88.77	90.81	0	0.05	40.35	65.11
N.O=P(O)(O)O [MAP, monoammonium phosphate]									0	0.74	1.61	2.09				
